Consider 4 compounds from paper PMC8819286 (Cancer Science, 2021).

Assay [1] relates to PC‐9 (EGFR^19del) cells. Description: Proliferation assay. The assay is classed as cell-based. The note with it: Homo sapiens, PC-9, 72 h, read-out: IC50, antiproliferative, PC‐9 cells.
The subject of assay [2] is PC‐9‐OR cells. Put plainly: Apoptosis, Annexin V‐FITC/PI flow cytometry. The assay is classed as cell-based. The note with it: concentrations between 30 nmol/L and 300 nmol/L, 48 h.
For assay [3], the system named is BaF3‐EGFR^19del/T790M/C797S cells. Put plainly: Apoptosis, Annexin V‐FITC/PI flow cytometry. The format is cell-based. Conditions: concentrations between 30 nmol/L and 300 nmol/L, 48 h.
Assay [4] shares this test system. Description: Proliferation assay. The assay is classed as cell-based. The note with it: 72 h, read-out: IC50, antiproliferative, BaF3‐EGFR^19del/T790M/C797S.
Assay [5] concerns BaF3‐EGFR^19del/T790M cells. Put plainly: Proliferation assay. The format is cell-based. Conditions: 72 h, read-out: IC50, antiproliferative, BaF3‐EGFR^19del/T790M.
The test system of assay [6] is EGFR^T790M patients. The note with it: cited from earlier work.
Assay [7] has as its system PC‐9‐OR cells (EGFR^19del/T790M/C797S). Put plainly: Proliferation assay. The format is cell-based. The note with it: PC9-OR, 72 h, read-out: IC50, antiproliferative, PC‐9‐OR cells.
Assay [8] has as its system EGFR^19del/T790M/C797S–triple‐mutant cells. Conditions: cited from earlier work.

Where two headings read alike, the source gives them in different places.

For the compound `C=CC(=O)Nc1cc(Nc2nccc(-c3cn(C)c4ccccc34)n2)c(OC)cc1N(C)CCN(C)C` [Osimertinib], the IC50 in assay [1] was 80 nM; in assay [4], 3380 nM; in assay [5] it was 40 nM; in assay [7] it was 4850 nM. For the same compound, the “apoptosis (in words)” value in assay [2] and in assay [3] was “hardly caused any significant apoptosis” each time. For the same compound, in assay [6], the response rate is reported as 61%.
For `O=C(Nc1nccs1)C(c1cc(F)ccc1O)N1Cc2ccc(-c3ccc(N4CCNCC4)cc3)cc2C1=O` (stereo not shown) [JBJ‐04‐125‐02], in assay [8], the “effectiveness against EGFR^19del/T790M/C797S–triple‐mutant cells” value (shortened to “effectiveness”) is reported as “not effective”.
As to `COc1cc(N2CCC(N3CCN(C)CC3)CC2)ccc1Nc1ncc(Cl)c(Nc2ccccc2P(C)(C)=O)n1` [Brigatinib], the “effectiveness” value in assay [8] (in vitro and in vivo) was “effective”.
On to `O=C(Nc1nccs1)C(c1cc(F)ccc1O)N1Cc2ccccc2C1=O` (stereo not shown) [EAI045], for which the “effectiveness” value in assay [8] was “not effective”.
